Columns and labels:
rats of Wistar strain [1] = assay: Subacute oral toxicity test in rats (5 weeks); type: in vivo
Experimental: Coenzyme Q10 was compulsorily and orally administered every day for 5 weeks to each group consisting of 10 male rats and 10 female rats of Wistar strain. The dose was 40, 200, and 1000 mg/Kg/day, respectively. Coenzyme Q10 was used in the form of gum Arabic suspension, while the solution containing gum Arabic alone was used as the control group. Collection of blood and urine samples and autopsies were carried out 5 weeks after the initiation of administration.

mice of ICR-JCL strain = assay: Acute toxicity test in mice (single dose, 7 days observation); type: in vivo; conditions: for Maximum dose (no case of deaths): 7 days
Excerpt: (§1) In order to evaluate the acute toxicity of a single high dose administration of Coenzyme Q10, male and female rats of Wistar strain and male and female mice of ICR-JCL strain were used, and oral, intramuscular, subcutaneous, and intravenous administrations were studied. For the oral administration of Coenzyme Q10, gum Arabic suspension was used. For the intramuscular, subcutaneous and intravenous administrations, Coenzyme Q10 was used as its solution in a nonionic surfactant, Nikkol HCO-60. Nikkol HCO-60 is a trade name of a non-ionic surfactant comprised of hydrogenated castor oil/polyoxyethylene-60 mole ether available from Nikko Chemicals, Co. Ltd., Japan.
(§2) Observations were carried out for 7 days by using six males and six females for each dose group.

rats of Wistar strain [2] = assay: Acute toxicity test in rats (single dose, 7 days observation); type: in vivo; conditions: for Maximum dose (no case of deaths): 7 days
Excerpt: as §1, §2

[3] = test system: patients having impaired hearing caused by administration of a drug; assay: Clinical test on the administration of Coenzyme Q10 for impaired hearing (audiometry); type: in vivo, human
Experimental: 30 Mg/day of Coenzyme Q10 was administered perorally three times a day after meal. Duration of administration differed with patients in the range of from two weeks to four months.
Coenzyme Q10 was administered to 9 patients having impaired hearing caused by administration of a drug (an antibiotic called poison against hearing organs). 8 of 9 patients were being administered with some poison against hearing organs at the time of the first medical examination of otorhinology. The remaining one patient was given streptomycin more than 10 years before then. It was pointed out that labyrinthine disorder was observed already and the administration of the poisons against hearing organs was discontinued in 5 of the 8 cases. In the remaining 3 cases, the treatment of the diseases with the poisons against hearing organs was continued with administration of Coenzyme Q10.
In many cases, a combination of drugs such as combination of streptomycin (SM) with kanamycin (KM), kanendomycin (KDM) or gentamycin (GM) had been used.
Determination of hearing acuity threshold value in air conduction and bone conduction and recruitment test were effected using an audiometer in a sound-proof chamber.
The sum of the air conduction threshold value was determined in terms of decibel units and the values before and after the administration of Coenzyme Q10 were compared with each other.
Air condition region values at 125 Hz, 250 Hz, 1 KHz, 2 KHz, 4 KHz and 8 KHz in audiogram were added together to obtain a value called the total region value at that time. In case the difference in the value between before and after the administration of Coenzyme Q10 is more than ± 35 db, it was judged to be improved or worsened and in case the difference is within 35 db, it was judged to be unchanged. In case a threshold value of a certain frequency is scaled out, a value of the maximum output at that frequency plus 5 db. was employed.

rats of Wistar strain [4] = assay: Chronic oral toxicity test in rats (26 weeks); type: in vivo
Experimental: Coenzyme Q10 was compulsorily and orally administered to each group consisting of 10 male rats and 10 female rats of Wistar strain for 26 consecutive weeks in a ratio of 6 days a week. The dose was 6, 60 and 600 mg/Kg/day, respectively. Coenzyme Q10 was used in the form of gum Arabic suspension, whereas the solution containing gum Arabic alone is used as the control group. Collection of blood and urine samples and autopsies were carried out 26 weeks after the administration.

rabbits = assay: Subacute oral toxicity test in rabbits (23 days); type: in vivo
Experimental: Coenzyme Q10 was compulsorily and orally administered every day for 23 days to each group consisting of 6 male rabbits and 5 female rabbits. The dose was 6, 60 and 600 mg/Kg/day, respectively. Coenzyme Q10 was used in the form of gum Arabic suspension, whereas the solution containing gum Arabic alone was used as the control group. On the 24th day, blood samples were collected from all the animals, and 3 males and 2 females from each group were then selectively autopsied.

rats = assay: Teratogenesis test in rats; type: in vivo; conditions: 6, 60 and 600 mg/Kg/day
mice = assay: Teratogenesis test in mice; type: in vivo; conditions: 6, 60 and 600 mg/Kg/day
[5] = intramuscular, in Nikkol HCO-60, single dose
[6] = intravenous, in Nikkol HCO-60, single dose
[7] = oral, gum Arabic suspension, single dose
[8] = relative to maximum doses of Table 1
[9] = subcutaneous, in Nikkol HCO-60, single dose
[10] = attributed to spontaneous pneumonia and aspiration pneumonia due to an erroneous administration
[11] = 6, 60, 600 mg/Kg/day oral, 23 days

Question: COC1=C(OC)C(=O)C(C/C=C(\C)CC/C=C(\C)CC/C=C(\C)CC/C=C(\C)CC/C=C(\C)CC/C=C(\C)CC/C=C(\C)CC/C=C(\C)CC/C=C(\C)CCC=C(C)C)=C(C)C1=O [Coenzyme Q10] was tested. Which “general condition and body weight vs control” value (rats of Wistar strain [1]; 40, 200, 1000 mg/Kg/day oral, 5 weeks) did it give?
Answer: The value was “no difference”.

Question: And the “dead animals during the experiment” value (rats of Wistar strain [1]; attributed to spontaneous pneumonia and aspiration pneumonia due to an error of administration)?
Answer: The value was 4 animals.

Question: What about the “toxicity seemingly due to the administration” value (rats of Wistar strain [1]; subacute oral, 5 weeks, overall) of the same molecule?
Answer: The value was “there was not recognized the toxicity”.

Question: And the “toxicity (overall, acute)” value (mice of ICR-JCL strain; acute, overall)?
Answer: Its value is “extremely low”.

Question: And the “Maximum dose (no case of deaths)” value (mice of ICR-JCL strain; [5])?
Answer: The value was 500 mg/kg.

Question: And the “Maximum dose (no case of deaths)” value (mice of ICR-JCL strain; [6])?
Answer: Its value is 250 mg/kg.

Question: What about the deaths (mice of ICR-JCL strain; maximum dose in each route) of the same molecule?
Answer: The deaths was “no case of deaths”.

Question: What about the “Maximum dose (no case of deaths)” value (mice of ICR-JCL strain; [7]) of the same molecule?
Answer: The value was 4000 mg/kg.

Question: And the LD50 (mice of ICR-JCL strain; [8])?
Answer: Its LD50 is “far higher than the maximum dose”.

Question: What about the “Maximum dose (no case of deaths)” value (mice of ICR-JCL strain; [9]) of the same molecule?
Answer: The value was 500 mg/kg.

Question: And the “toxicity (overall, acute)” value (rats of Wistar strain [2]; acute, overall)?
Answer: Its value is “extremely low”.

Question: And the “Maximum dose (no case of deaths)” value (rats of Wistar strain [2]; [5])?
Answer: The value was 500 mg/kg.

Question: What about the “Maximum dose (no case of deaths)” value (rats of Wistar strain [2]; [6]) of the same molecule?
Answer: The value was 250 mg/kg.

Question: What about the deaths (rats of Wistar strain [2]; maximum dose in each route) of the same molecule?
Answer: Its deaths is “no case of deaths”.

Question: What about the “Maximum dose (no case of deaths)” value (rats of Wistar strain [2]; [7]) of the same molecule?
Answer: The value was 4000 mg/kg.

Question: And the LD50 (rats of Wistar strain [2]; [8])?
Answer: The LD50 was “far higher than the maximum dose”.

Question: And the “Maximum dose (no case of deaths)” value (rats of Wistar strain [2]; [9])?
Answer: Its value is 500 mg/kg.

Question: What about the “effectiveness as a medicament for treating impaired hearing” value ([3]; overall conclusion) of the same molecule?
Answer: The value was “effective as a medicament for treating impaired hearing”.

Question: What about the “ears improved (number of 18 ears)” value ([3]; with Coenzyme Q10, of 18 ears) of the same molecule?
Answer: The value was 13 ears.

Question: What about the “ears improved (percent)” value ([3]; with Coenzyme Q10, of 18 ears) of the same molecule?
Answer: The value was 72%.

Question: What about the “ears unchanged (number of 18 ears)” value ([3]; with Coenzyme Q10, of 18 ears) of the same molecule?
Answer: The value was 5 ears.

Question: And the “ears unchanged (percent)” value ([3]; with Coenzyme Q10, of 18 ears)?
Answer: Its value is 28%.

Question: And the worsening ([3]; with Coenzyme Q10, of 18 ears)?
Answer: The worsening was “no worsening being observed”.

Question: What about the “body weight vs control” value (rats of Wistar strain [4]; 6, 60, 600 mg/Kg/day oral, 26 weeks) of the same molecule?
Answer: The value was “increased as same as that of the control group”.

Question: What about the “general condition vs control” value (rats of Wistar strain [4]; 6, 60, 600 mg/Kg/day oral, 26 weeks, 6 days a week) of the same molecule?
Answer: Its value is “no difference”.

Question: And the “biochemical tests of blood and urine vs control” value (rats of Wistar strain [4]; 26 weeks)?
Answer: Its value is “No significant changes were recognized”.

Question: What about the weight of organs (rats of Wistar strain [4]; 26 weeks) of the same molecule?
Answer: Its weight of organs is “no significant increase and decrease”.

Question: What about the “deaths, females” value (rats of Wistar strain [4]; [10]) of the same molecule?
Answer: The value was 3 females.

Question: What about the “deaths, males” value (rats of Wistar strain [4]; [10]) of the same molecule?
Answer: Its value is 11 males.

Question: What about the toxicity (rats of Wistar strain [4]; chronic oral, 26 weeks, overall) of the same molecule?
Answer: The toxicity was “no toxicity was observed”.

Question: And the “macroscopical and histological observation vs control” value (rats of Wistar strain [4]; hemoxylin.Eosine staining and liver fat staining, 26 weeks)?
Answer: The value was “abnormalities were not recognized”.

Question: What about the leukocytal percentages (rats of Wistar strain [4]; not dose related, within the extent of physiological fluctuations) of the same molecule?
Answer: The leukocytal percentages was “some increase and decrease”.

Question: And the “general condition and increase of body weight vs control” value (rabbits; [11])?
Answer: The value was “no difference”.

Question: And the “weight of each organ” value (rabbits; [11])?
Answer: The value was “no effect”.

Question: And the “electron-microscopic observation of liver” value (rabbits; 7th, 14th, and 24th days after the administration)?
Answer: Its value is “there were not recognized abnormal findings”.

Question: And the findings suggesting toxicity (rabbits; subacute oral, 23 days, overall)?
Answer: The findings suggesting toxicity was “there were not recognized the findings”.

Question: What about the “adverse effects in mothers, fetuses, and newborns” value (rats) of the same molecule?
Answer: The value was “no adverse effects”.

Question: And the “adverse effects in mothers, fetuses, and newborns” value (mice)?
Answer: Its value is “no adverse effects”.
